Reference: US10758609B2, “Cross-reactive T-cell epitopes of HIV, SIV, and FIV for vaccines in humans and cats” (priority 2015, dated 2020)
Residues, ends and D or L forms follow the SMILES beside them.

Legend:
[1] = test system: CD4^+ T cells from HIV^+ subjects; conditions: HIV+ human subjects; for CyCD4: CD4+ T-cell cytolysin/cytotoxins (perforin, GrzA & B), frequency of responders: HIV-1 epitope peptide, threshold ≥0.2%
Procedure: (§1) The overlapping peptide pools of FIV and HIV-1 structural and enzyme proteins were used to stimulate the […] (PBMC) and the T cells from HIV^+ subjects as previously described for epitope mapping of HIV-1 and FIV p24 and reverse transcriptase (RT) (Sanou et al., 2013; Roff et al., 2015). The individual peptides in those peptide pools with positive responses to either interferon-γ (IFNγ) production and/or T-cell proliferation were determined with IFNγ ELISpot analysis and CFSE-based CD3^+CD4^+ and CD3^+CD8^+ T-cell proliferation analyses followed by the FACS-based intracellular staining (ICS) for cytolysin (perforin) and cytotoxin (granzyme A [GrzA] and GrzB) (Sanou et al., 2013; Roff et al., 2015). Besides viral p24 and RT proteins, the identical approach was used to identify anti-HIV/FIV T-cell epitopes on viral matrix (MA), nucleocapsid (NC), protease (PR), RNAase, integrase (IN), surface envelope (SU Env), and transmembrane envelope (TM Env) (FIG. 12).
(§2) Since our goal is to develop HIV vaccine for human use, the HIV peptides (Table 10) counterpart of the cross-reactive FIV peptides shown in Table 9 were tested with PBMC and T cells from HIV^+ subjects. The immune functions analyzed were human IFNγ production by ELISpot, cytolysin/cytotoxin production by ICS, and CFSE-based proliferation of CD3^+CD4^+ and CD3^+CD8^+ T cells from HIV^+ subjects (Table 10, the first set of results). In addition, the Los Alamos National Laboratories (LANL) database was used to identify the HLA allele(s) of the HIV epitope sequence with CTL activity that can exist within the sequence of the conserved counterpart HIV peptide (Table 9, LANL CTL). The bold HLA class-I supertypes and the bold 2-digit alleles are those on the “Optimal CD8^+ CTL Epitopes” list and those without bold are alleles for potential CTL epitope. […] The HLA class II such as HLA-DRB1 has yet to be fully classified into supertypes, and therefore the 4-digit resolution nomenclatures for the HLA-DRB1 alleles are shown.
(§3) The counterpart HIV-1 peptides of the FIV peptides were also tested for immunogenicity using PBMC and T cells from HIV^+ human subjects. […] The HRT7-1 and HRT7-2 were also tested with cells from HIV^+ subjects on ART. The threshold for positive IFNγ ELISpot response is ≥75 spot-forming units (SFU) per 10^6 PBMC. The threshold for CFSE-based CD4^+ (CD4^+ T) and CD8^+ (CD8^+ T) T-cell proliferation is ≥2% CD4^+ T-cell CFSE^low or CD8^+ T-cell CFSE^low. The threshold of intracellular cytokine staining (ICS) of FACS-based cytolysin (perforin) and cytotoxins (granzymes A and B) in CD4^+ T cells (CyCD4) and CD8^+ T cells (CyCD8) is ≥0.2%. […] The nine HIV-1 peptides in black are the counterpart FIV peptides used in the current MAP vaccine trial, whereas the 13 peptides in blue were not.

[2] = test system: CD8^+ T cells from HIV^+ subjects; experiment: FACS-based intracellular staining (ICS) for cytolysin (perforin) and cytotoxins (GrzA, GrzB) in CD8+ T cells; conditions: HIV+ human subjects; for CyCD8: CD8+ T-cell cytolysin/cytotoxins (perforin, GrzA & B), frequency of responders: HIV-1 epitope peptide, threshold ≥0.2%
How it was run: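 Peptides tested with PBMC and T cells from HIV^+ subjects, some on ART. CFSE proliferation positive at ≥2% CFSE^low CD4^+ or CD8^+ T cells; intracellular perforin, granzyme A and B staining by FACS positive at ≥0.2%.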

PBMC from HIV^+ subjects = experiment: IFNγ ELISpot of PBMC from HIV+ human subjects; assay type: cell-based
Procedure: as §1, §2
In addition, these peptides were also analyzed for IFNγ production, CD4^+ and CD8^+ T-cell proliferation, and cytolysin (perforin) and cytotoxin (granzyme A (GrzA) and GrzB)) mRNA production of PBMC or T cells from 8-30 HIV^+ human subjects. The frequency of responders is based on the individual responses of the vaccinated cats or HIV^+ human subjects after subtraction of the average of the responses of PBMC or T cells from 6-8 non-vaccinated cats or 8-20 HIV-negative human subjects.
(§4) The threshold for positive IFNγ and IL2 ELISpot responses is ≥50 spot-forming units (SFU) per 10^6 PBMC. The threshold for CFSE-based CD4^+ and CD8^+ T-cell proliferation is ≥2% CD4^+ T-cell CFSE^low or CD8^+ T-cell CFSE^low. The threshold of FACS-based intracellular cytokine staining (ICS) is ≥0.2%. […] The nine FIV peptides in black were used in the current MAP vaccine trial, whereas the 13 peptides in blue were not used. […] The MAPs and their corresponding peptide(s) were also tested for their ability to enhance or suppress in vitro FIV infection of feline PBMC (E/S of peptides and E/S of MAP).
The counterpart HIV-1 peptides of the FIV peptides were also tested for immunogenicity using PBMC and T cells from HIV^+ human subjects. […] The HRT7-1 and HRT7-2 were also tested with cells from HIV^+ subjects on ART. The threshold for positive IFNγ ELISpot response is ≥75 spot-forming units (SFU) per 10^6 PBMC. The threshold for CFSE-based CD4^+ (CD4^+ T) and CD8^+ (CD8^+ T) T-cell proliferation is ≥2% CD4^+ T-cell CFSE^low or CD8^+ T-cell CFSE^low. The threshold of intracellular cytokine staining (ICS) of FACS-based cytolysin (perforin) and cytotoxins (granzymes A and B) in CD4^+ T cells (CyCD4) and CD8^+ T cells (CyCD8) is ≥0.2%.

[3] = test system: CD3^+CD4^+ T cells from HIV^+ subjects; experiment: CFSE-based CD3+CD4+ T-cell proliferation, HIV+ human subjects
Procedure: as §1, §2, §4, §3

[4] = test system: CD3^+CD8^+ T cells from HIV^+ subjects; experiment: CFSE-based CD3+CD8+ T-cell proliferation, HIV+ human subjects
Procedure: as §1, §2, §4, §3

[5] = HIV-1 epitope peptide, threshold ≥2% CFSElow

| Molecule | CyCD4: CD4+ T-cell cytolysin/cytotoxins (perforin, GrzA & B), frequency of responders [1] | CyCD8: CD8+ T-cell cytolysin/cytotoxins (perforin, GrzA & B), frequency of responders [2] | CyCD4 (cytolysin and cytotoxin production of CD4+ T cells), frequency of responders ([1]; HIV-1 peptides) | CyCD7, frequency of responders ([2]; HIV-1 peptides) | IFNγ, frequency of responders (PBMC from HIV^+ subjects; HIV-1 epitope peptide, threshold ≥75 SFU per 10^6 PBMC) | IFNγ, frequency of responders (PBMC from HIV^+ subjects; HIV-1 peptides) | CD4+ T proliferation, frequency of responders [3, 5] | CDC4^+ T (T-cell proliferation), frequency of responders ([3]; HIV-1 peptides) | CD8+ T proliferation, frequency of responders [4, 5] | CD8^+ T (T-cell proliferation), frequency of responders ([4]; HIV-1 peptides) |
| --- | --- | --- | --- | --- | --- | --- | --- | --- | --- | --- |
| CSCC[C@H](NC(=O)[C@@H](NC(=O)[C@H](CC(N)=O)NC(=O)[C@H](CC(C)C)NC(=O)[C@H](CC(=O)O)NC(=O)[C@H](CCC(N)=O)NC(=O)[C@@H]1CCCN1)[C@@H](C)O)C(=O)N[C@@H](CC(C)C)C(=O)N[C@@H](CC(N)=O)C(=O)N[C@H](C(=O)N[C@H](C(=O)NCC(=O)NCC(=O)N[C@@H](Cc1c[nH]cn1)C(=O)N[C@@H](CCC(N)=O)C(=O)O)C(C)C)[C@@H](C)O [Hp4-3] (H-PQDLNTMLNTVGGHQ-OH; N-terminus and C-terminus assumed) | − (0%-1.4% (−)) | ++ (25.1%-40% (++)) |  |  |  |  |  |  |  |  |
| CSCC[C@H](NC(=O)[C@H](Cc1c[nH]c2ccccc12)NC(=O)[C@H](CC(N)=O)NC(=O)[C@H](CCCCN)NC(=O)[C@@H](NC(=O)[C@H](CCC(=O)O)NC(=O)[C@H](CCC(N)=O)NC(=O)[C@H](CO)NC(=O)[C@H](C)N)C(C)C)C(=O)N[C@H](C(=O)N[C@@H](CCC(=O)O)C(=O)N[C@H](C(=O)N[C@@H](CC(C)C)C(=O)N[C@@H](CC(C)C)C(=O)N[C@H](C(=O)O)C(C)C)[C@@H](C)O)[C@@H](C)O [Hp14-3 (15-2)] (H-ASQEVKNWMTETLLV-OH) | ++++ (>54% (++++)) | ++++ (>54% (++++)) |  |  |  |  |  |  |  |  |
| KKDSTKWRKLVDFRE [HRT3-3] | ++++ (>54% (++++)) | ++++ (>54% (++++)) | ++++ (>54% (++++)) | ++++ (>54% (++++)) | + (12.5%-25% (+)) | + (12.5%-25% (+)) | ++ (25.1%-40% (++)) | ++ (25.1%-40% (++)) | +++ (40.1%-54% (+++)) | +++ (40.1%-54% (+++)) |
